Patent US10787413B2, “Derivatives of curcuminoids and use thereof as an anticancer agent” (CHINA MEDICAL UNIVERSITY, priority 2016, dated 2020)
Where two headings read alike, the source gives them in different places.

Assays:
[1] = system: MDA-MB-231 cells; assay: cDNA microarray; format: cell-based, human
Experimental: The cells were incubated with or without 21a. After exposure, cell pellets were collected, and the total RNA from each treatment was purified using the Qiagen RNeasy Mini Kit (Qiagen, Valencia, Calif., USA). The RNA purity was determined to check the quality at 260/280 nm using a NanoDrop 1000 Spectrophotometer (Thermo Fisher Scientific, Wilmington, Del., USA). mRNA was amplified and labeled using the Gene-Chip WT Sense Target Labeling and Control Reagents kit (Affymetrix, Santa Clara, Calif., USA) for expression analysis. The synthesized cDNA was labeled with fluorescence and then hybridized for 17 h using AffymetrixGeneChip Human Gene 1.0 ST array (Affymetrix) to determine microarray hybridization following the manufacturer's protocols. The arrays were subsequently washed using Fluidics Station 450 (Affymetrix), stained with streptavidin-phycoerythrin (Gene-Chip Hybridization, Wash, and Stain kit, Affymetrix), and scanned on a GeneChip Scanner 3000 (Affymetrix). The localized concentrations of fluorescent molecules were quantitated and analyzed using Expression Console Software (Affymetrix) with default RMA parameters as previously described (Chang et al. 2012; Liu et al. 2013). […]

[2] = system: BT-474; assay: Cell viability, BT-474 breast cancer cells; format: cell-based; conditions: Homo sapiens; BT-474 (Her-2+), treated for 24 h
Experimental: (§1) Cell viability was evaluated by measuring the reduction in MTT to yield blue formazan. Cells were cultured in 96-well plates, allowed to attach overnight, and then treated with compounds. After treatment, MTT solution (1 mg/ml) was added to each well, and plates were incubated for another 4 h. Medium were removed, blue formazan was dissolved in DMSO, and the absorbance was read at 570 nm^20.

[3] = system: Doxorubicin-resistant MDA-MB-231; assay: Cell viability, Doxorubicin-resistant MDA-MB-231; format: cell-based; conditions: for IC50: Doxorubicin-resistant MDA-MB-231, treated for 24 h
Experimental: as §1

[4] = system: HCT-116 colon cancer cell; assay: MTT cell viability assay, HCT-116 colon cancer cell; format: cell-based; conditions: Homo sapiens
Experimental: as §1

[5] = system: T47D; assay: Cell viability, T47D breast cancer cells; format: cell-based; conditions: Homo sapiens; T47D (ER+/PR+), treated for 24 h
Experimental: as §1

COc1cc(/C=C/C(=O)/C=C(O)/C=C/c2ccc(OC(=O)C(C)(CO)CO)c(OC)c2)ccc1OC(=O)C(C)(CO)CO [Compound 21a, ((1E,3Z,6E)-3-Hydroxy-5-oxohepta-1,3,6-triene-1,7-diyl)bis(2-methoxy-4,1-phenylene) bis(3-hydroxy-2-(hydroxymethyl)-2-methylpropenoate)]
log2 (Ratio) CENPI ([1]; mRNA, MDA-MB-231 cells, 24-h treatment, ID PH_hs_0028200): −2.537 | log2 (Ratio) CCDC85B ([1]; mRNA, MDA-MB-231 cells, 24-h treatment, ID PH_hs_0028915): −2.622 | log2 (Ratio) TCF21 ([1]; mRNA, MDA-MB-231 cells, 24-h treatment, ID PH_hs_0028987): 2.769 | log2 (Ratio) AKR1C1 ([1]; mRNA, MDA-MB-231 cells, 24-h treatment, ID PH_hs_0029660): 2.695 | log2 (Ratio) FANCF ([1]; mRNA, MDA-MB-231 cells, 24-h treatment, ID PH_hs_0030800): −2.553 | log2 (Ratio) NFKBIB ([1]; mRNA, MDA-MB-231 cells, 24-h treatment, ID PH_hs_0030976): 2.516 | log2 (Ratio) VIMP ([1]; mRNA, MDA-MB-231 cells, 24-h treatment, ID PH_hs_0031143): 3.213 | log2 (Ratio) GNG2 ([1]; mRNA, MDA-MB-231 cells, 24-h treatment, ID PH_hs_0031540): −2.661 | log2 (Ratio) CCL26 ([1]; mRNA, MDA-MB-231 cells, 24-h treatment, ID PH_hs_0031719): 4.147 | log2 (Ratio) SIK1 ([1]; mRNA, MDA-MB-231 cells, 24-h treatment, ID PH_hs_0033027): 2.548 | log2 (Ratio) DDIT3 ([1]; mRNA, MDA-MB-231 cells, 24-h treatment, ID PH_hs_0033101): 3.556 | log2 (Ratio) OMA1 ([1]; mRNA, MDA-MB-231 cells, 24-h treatment, ID PH_hs_0035337): −2.514 | log2 (Ratio) SAT1 ([1]; mRNA, MDA-MB-231 cells, 24-h treatment, ID PH_hs_0035404): 3.764 | log2 (Ratio) AKR1C3|AKR1C1 ([1]; mRNA, MDA-MB-231 cells, 24-h treatment, ID PH_hs_0035466): 2.962 | log2 (Ratio) ETV1 ([1]; mRNA, MDA-MB-231 cells, 24-h treatment, ID PH_hs_0035609): −2.788 | log2 (Ratio) RC3H1 ([1]; mRNA, MDA-MB-231 cells, 24-h treatment, ID PH_hs_0035614): 3.063 | log2 (Ratio) GDF15 ([1]; mRNA, MDA-MB-231 cells, 24-h treatment, ID PH_hs_0035765): 3.427 | log2 (Ratio) PIF1 ([1]; mRNA, MDA-MB-231 cells, 24-h treatment, ID PH_hs_0036878): −2.714 | log2 (Ratio) MALAT1 ([1]; mRNA, MDA-MB-231 cells, 24-h treatment, ID PH_hs_0037242): 2.683 | log2 (Ratio) MALAT1 ([1]; mRNA, MDA-MB-231 cells, 24-h treatment, ID PH_hs_0037472): 3.48 | log2 (Ratio) LOC100134259 ([1]; mRNA, MDA-MB-231 cells, 24-h treatment, ID PH_hs_0038982): −2.503 | log2 (Ratio) MXD3 ([1]; mRNA, MDA-MB-231 cells, 24-h treatment, ID PH_hs_0040619): −2.891 | log2 (Ratio) DUSP5 ([1]; mRNA, MDA-MB-231 cells, 24-h treatment, ID PH_hs_0042225): 2.541 | log2 (Ratio) MT4 ([1]; mRNA, MDA-MB-231 cells, 24-h treatment, ID PH_hs_0042334): 3.931 | log2 (Ratio) DNAJB1 ([1]; mRNA, MDA-MB-231 cells, 24-h treatment, ID PH_hs_0042409): 2.767 | log2 (Ratio) HMGCS1 ([1]; mRNA, MDA-MB-231 cells, 24-h treatment, ID PH_hs_0043719): 2.895 | log2 (Ratio) CLK1 ([1]; mRNA, MDA-MB-231 cells, 24-h treatment, ID PH_hs_0044272): 2.829 | log2 (Ratio) HSPA1A ([1]; mRNA, MDA-MB-231 cells, 24-h treatment, ID PH_hs_0044921): 2.535 | log2 (Ratio) EID3 ([1]; mRNA, MDA-MB-231 cells, 24-h treatment, ID PH_hs_0045501): 4.039 | log2 (Ratio) SLC6A6 ([1]; mRNA, MDA-MB-231 cells, 24-h treatment, ID PH_hs_0045838): 2.838 | log2 (Ratio) RN7SK ([1]; mRNA, MDA-MB-231 cells, 24-h treatment, ID PH_hs_0046245): 4.763 | log2 (Ratio) MARCKS ([1]; mRNA, MDA-MB-231 cells, 24-h treatment, ID PH_hs_0047352): −3.043 | log2 (Ratio) PDP1 ([1]; mRNA, MDA-MB-231 cells, 24-h treatment, ID PH_hs_0047571): −2.547 | log2 (Ratio) ARF6 ([1]; mRNA, MDA-MB-231 cells, 24-h treatment, ID PH_hs_0047697): −2.688 | log2 (Ratio) PHLDA1 ([1]; mRNA, MDA-MB-231 cells, 24-h treatment, ID PH_hs_0047965): −2.959 | log2 (Ratio) MYCT1 ([1]; mRNA, MDA-MB-231 cells, 24-h treatment, ID PH_hs_0048553): 3.866 | log2 (Ratio) FKBP4 ([1]; mRNA, MDA-MB-231 cells, 24-h treatment, ID PH_hs_0048881): 2.809 | log2 (Ratio) NRP1 ([1]; mRNA, MDA-MB-231 cells, 24-h treatment, ID PH_hs_0048993): −2.677 | log2 (Ratio) GPR39 ([1]; mRNA, MDA-MB-231 cells, 24-h treatment, ID PH_hs_0049449): −2.73 | log2 (Ratio) HSPA6 ([1]; mRNA, MDA-MB-231 cells, 24-h treatment, ID PH_hs_0049600): 6.644 | log2 (Ratio) ZNF121 ([1]; mRNA, MDA-MB-231 cells, 24-h treatment, ID PH_hs_0060053): 2.575 | log2 (Ratio) TRIB3 ([1]; mRNA, MDA-MB-231 cells, 24-h treatment, ID PH_hs_0060828): 2.735 | log2 (Ratio) ZBTB21 ([1]; mRNA, MDA-MB-231 cells, 24-h treatment, ID PH_hs_0061012): 2.731 | log2 (Ratio) AKR1C1|LOC101060798 ([1]; mRNA, MDA-MB-231 cells, 24-h treatment, ID PH_hs_0062199): 3.357 | log2 (Ratio) CDKN1A ([1]; mRNA, MDA-MB-231 cells, 24-h treatment, ID PH_hs_p061784): 2.967 | genes expressed at least by 2.5 folds compared with untreated control ([1]; total): 97 genes | IC50 [2]: 6.15 ± 0.87 µM | times greater inhibitory activity than curcumin ([3]; Doxorubicin-resistant MDA-MB-231): 10 times | IC50 [3]: 6.52 ± 1.7 µM | IC50 ([3]; Homo sapiens, MDA-MB-231, 24 h): 6.5 µM | IC50 ([4]; HCT-116, treated 24 hours, read-out: IC50 24 hours): 10.5 ± 1.03 µM | IC50 ([4]; HCT-116, treated 48 hours, read-out: IC50 48 hours): 6.25 ± 0.596 µM | IC50 ([4]; HCT-116, treated 72 hours, read-out: IC50 72 hours): 3.91 ± 0.27 µM | IC50 [5]: 19.3 ± 1.71 µM
